{"source": "patent US11459323B2", "about": "“Monocyclic β-lactam compound for treating bacterial infection” (MEDSHINE DISCOVERY INC., priority 2018, dated 2022)", "experiment_in_all_cases": "MIC on clinically isolated bacteria", "assay_type_in_all_cases": "cell-based", "key": {"[1]": {"tested_on": "Pseudomonas aeruginosa C762", "conditions": "read-out: MIC", "procedure,_shortened": "(§1)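 Values were obtained by CLSI-conformant microdilution against clinically isolated Gram-negative strains.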"}, "[2]": {"tested_on": "Pseudomonas aeruginosa C745", "conditions": "read-out: MIC", "procedure,_shortened": "as §1"}, "[3]": {"tested_on": "Pseudomonas aeruginosa C754", "conditions": "read-out: MIC", "procedure,_shortened": "as §1"}, "[4]": {"tested_on": "Acinetobacter baumannii C390", "conditions": "Acinetobacter baumannii C390; read-out: Minimum Inhibitory Concentration (MIC)", "procedure,_shortened": "as §1"}, "[5]": {"tested_on": "Pseudomonas aeruginosa W4", "conditions": "read-out: MIC", "procedure,_shortened": "as §1"}, "[6]": {"tested_on": "Acinetobacter baumannii C283", "conditions": "Acinetobacter baumannii C283; read-out: Minimum Inhibitory Concentration (MIC)", "procedure,_shortened": "as §1"}, "[7]": {"tested_on": "Acinetobacter baumannii C427", "conditions": "Acinetobacter baumannii C427; read-out: Minimum Inhibitory Concentration (MIC)", "procedure,_shortened": "as §1"}, "[8]": {"tested_on": "Acinetobacter baumannii C251", "conditions": "Acinetobacter baumannii C251; read-out: Minimum Inhibitory Concentration (MIC)", "procedure,_shortened": "as §1"}, "[9]": {"tested_on": "Pseudomonas aeruginosa M4", "conditions": "read-out: MIC", "procedure,_shortened": "as §1"}, "[10]": {"tested_on": "Acinetobacter baumannii C333", "conditions": "Acinetobacter baumannii C333; read-out: Minimum Inhibitory Concentration (MIC)", "procedure,_shortened": "as §1"}, "[11]": {"tested_on": "Pseudomonas aeruginosa W42", "conditions": "read-out: MIC", "procedure,_shortened": "as §1"}, "[12]": {"tested_on": "Pseudomonas aeruginosa W29", "conditions": "read-out: MIC", "procedure,_shortened": "as §1"}, "[13]": {"tested_on": "Pseudomonas aeruginosa W27", "conditions": "read-out: MIC", "procedure,_shortened": "as §1"}, "[14]": {"tested_on": "Pseudomonas aeruginosa W28", "conditions": "read-out: MIC", "procedure,_shortened": "as §1"}, "[15]": {"tested_on": "Pseudomonas aeruginosa W32", "conditions": "read-out: MIC", "procedure,_shortened": "as §1"}, "[16]": {"tested_on": "Pseudomonas aeruginosa C755", "conditions": "read-out: MIC", "procedure,_shortened": "as §1"}, "[17]": {"tested_on": "Acinetobacter baumannii C408", "conditions": "Acinetobacter baumannii C408; read-out: Minimum Inhibitory Concentration (MIC)", "procedure,_shortened": "as §1"}, "[18]": {"tested_on": "Acinetobacter baumannii C395", "conditions": "Acinetobacter baumannii C395; read-out: Minimum Inhibitory Concentration (MIC)", "procedure,_shortened": "as §1"}, "[19]": {"tested_on": "Pseudomonas aeruginosa W20", "conditions": "read-out: MIC", "procedure,_shortened": "as §1"}, "[20]": {"tested_on": "Acinetobacter baumannii C312", "conditions": "Acinetobacter baumannii C312; read-out: Minimum Inhibitory Concentration (MIC)", "procedure,_shortened": "as §1"}, "[21]": {"tested_on": "Acinetobacter baumannii C241", "conditions": "Acinetobacter baumannii C241; read-out: Minimum Inhibitory Concentration (MIC)", "procedure,_shortened": "as §1"}, "[22]": {"tested_on": "Pseudomonas aeruginosa W13", "conditions": "read-out: MIC", "procedure,_shortened": "as §1"}, "[23]": {"tested_on": "Pseudomonas aeruginosa W46", "conditions": "read-out: MIC", "procedure,_shortened": "as §1"}, "[24]": {"tested_on": "Acinetobacter baumannii C319", "conditions": "Acinetobacter baumannii C319; read-out: Minimum Inhibitory Concentration (MIC)", "procedure,_shortened": "as §1"}, "[25]": {"tested_on": "Acinetobacter baumannii C315", "conditions": "Acinetobacter baumannii C315; read-out: Minimum Inhibitory Concentration (MIC)", "procedure,_shortened": "as §1"}, "[26]": {"tested_on": "Acinetobacter baumannii C328", "conditions": "Acinetobacter baumannii C328; read-out: Minimum Inhibitory Concentration (MIC)", "procedure,_shortened": "as §1"}, "[27]": {"tested_on": "Pseudomonas aeruginosa C763", "conditions": "read-out: MIC", "procedure,_shortened": "as §1"}, "[28]": {"tested_on": "Pseudomonas aeruginosa W21", "conditions": "read-out: MIC", "procedure,_shortened": "as §1"}, "[29]": {"tested_on": "Pseudomonas aeruginosa M1", "conditions": "read-out: MIC", "procedure,_shortened": "as §1"}, "Aeruginosa ATCC27853": {"tested_on": "Aeruginosa ATCC27853", "conditions": "Pseudomonas aeruginosa; Aeruginosa ATCC27853; read-out: MIC", "procedure,_shortened": "as §1"}, "[30]": {"tested_on": "Acinetobacter baumannii C394", "conditions": "Acinetobacter baumannii C394; read-out: Minimum Inhibitory Concentration (MIC)", "procedure,_shortened": "as §1"}, "[31]": {"tested_on": "Pseudomonas aeruginosa W9", "conditions": "read-out: MIC", "procedure,_shortened": "as §1"}, "[32]": {"tested_on": "Pseudomonas aeruginosa W23", "conditions": "read-out: MIC", "procedure,_shortened": "as §1"}, "[33]": {"tested_on": "Acinetobacter baumannii C332", "conditions": "Acinetobacter baumannii C332; read-out: Minimum Inhibitory Concentration (MIC)", "procedure,_shortened": "as §1"}, "[34]": {"tested_on": "Acinetobacter baumannii C313", "conditions": "Acinetobacter baumannii C313; read-out: Minimum Inhibitory Concentration (MIC)", "procedure,_shortened": "as §1"}, "[35]": {"tested_on": "Pseudomonas aeruginosa W47", "conditions": "read-out: MIC", "procedure,_shortened": "as §1"}, "[36]": {"tested_on": "Acinetobacter baumannii C279", "conditions": "Acinetobacter baumannii C279; read-out: Minimum Inhibitory Concentration (MIC)", "procedure,_shortened": "as §1"}, "[37]": {"tested_on": "Acinetobacter baumannii C181", "conditions": "Acinetobacter baumannii C181; read-out: Minimum Inhibitory Concentration (MIC)", "procedure,_shortened": "as §1"}, "[38]": {"tested_on": "Acinetobacter baumannii C281", "conditions": "Acinetobacter baumannii C281; read-out: Minimum Inhibitory Concentration (MIC)", "procedure,_shortened": "as §1"}, "[39]": {"tested_on": "Acinetobacter baumannii C402", "conditions": "Acinetobacter baumannii C402; read-out: Minimum Inhibitory Concentration (MIC)", "procedure,_shortened": "as §1"}, "[40]": {"tested_on": "Pseudomonas aeruginosa C761", "conditions": "read-out: MIC", "procedure,_shortened": "as §1"}}, "data": [{"smiles": "CC1(C)[C@H](NC(=O)/C(=N\\O[C@@H](COc2ccc3c(c2)CN(C(=N)NOCCN)C3)C(=O)O)c2csc(N)n2)C(=O)N1OS(=O)(=O)O", "note": "[Compound 43]", "values": [{"measurement": "MIC", "setting": "[1]", "result": 16, "unit": "µg/mL"}, {"measurement": "MIC", "setting": "[2]", "result": 8, "unit": "µg/mL"}, {"measurement": "MIC", "setting": "[3]", "result": 1, "unit": "µg/mL"}, {"measurement": "MIC", "setting": "[4]", "result": 8, "unit": "µg/mL"}, {"measurement": "MIC", "setting": "[5]", "result": 0.5, "unit": "µg/mL"}, {"measurement": "MIC", "setting": "[6]", "result": 8, "unit": "µg/mL"}, {"measurement": "MIC", "setting": "[7]", "result": 16, "unit": "µg/mL"}, {"measurement": "MIC", "setting": "[8]", "result": 8, "unit": "µg/mL"}, {"measurement": "MIC", "setting": "[9]", "result": 0.25, "unit": "µg/mL"}, {"measurement": "MIC", "setting": "[10]", "result": 8, "unit": "µg/mL"}, {"measurement": "MIC", "setting": "[11]", "result": 1, "unit": "µg/mL"}, {"measurement": "MIC", "setting": "[12]", "result": 8, "unit": "µg/mL"}, {"measurement": "MIC", "setting": "[13]", "result": 8, "unit": "µg/mL"}, {"measurement": "MIC", "setting": "[14]", "result": 8, "unit": "µg/mL"}, {"measurement": "MIC", "setting": "[15]", "result": 8, "unit": "µg/mL"}, {"measurement": "MIC", "setting": "[16]", "result": 1, "unit": "µg/mL"}, {"measurement": "MIC", "setting": "[17]", "result": 8, "unit": "µg/mL"}, {"measurement": "MIC", "setting": "[18]", "result": 8, "unit": "µg/mL"}, {"measurement": "MIC", "setting": "[19]", "result": 8, "unit": "µg/mL"}, {"measurement": "MIC", "setting": "[20]", "result": 8, "unit": "µg/mL"}, {"measurement": "MIC", "setting": "[21]", "result": "> 16", "unit": "µg/mL"}, {"measurement": "MIC", "setting": "[22]", "result": 1, "unit": "µg/mL"}, {"measurement": "MIC", "setting": "[23]", "result": 4, "unit": "µg/mL"}, {"measurement": "MIC", "setting": "[24]", "result": 8, "unit": "µg/mL"}, {"measurement": "MIC", "setting": "[25]", "result": 8, "unit": "µg/mL"}, {"measurement": "MIC", "setting": "[26]", "result": 8, "unit": "µg/mL"}, {"measurement": "MIC", "setting": "[27]", "result": 8, "unit": "µg/mL"}, {"measurement": "MIC", "setting": "[28]", "result": 1, "unit": "µg/mL"}, {"measurement": "MIC", "setting": "[29]", "result": 1, "unit": "µg/mL"}, {"measurement": "MIC", "setting": "Aeruginosa ATCC27853", "result": 1, "unit": "µg/mL"}, {"measurement": "MIC", "setting": "[30]", "result": 8, "unit": "µg/mL"}, {"measurement": "MIC", "setting": "[31]", "result": 8, "unit": "µg/mL"}, {"measurement": "MIC", "setting": "[32]", "result": 1, "unit": "µg/mL"}, {"measurement": "MIC", "setting": "[33]", "result": 8, "unit": "µg/mL"}, {"measurement": "MIC", "setting": "[34]", "result": 8, "unit": "µg/mL"}, {"measurement": "MIC", "setting": "[35]", "result": 8, "unit": "µg/mL"}, {"measurement": "MIC", "setting": "[36]", "result": 8, "unit": "µg/mL"}, {"measurement": "MIC", "setting": "[37]", "result": "> 16", "unit": "µg/mL"}, {"measurement": "MIC", "setting": "[38]", "result": 8, "unit": "µg/mL"}, {"measurement": "MIC", "setting": "[39]", "result": 8, "unit": "µg/mL"}, {"measurement": "MIC", "setting": "[40]", "result": 2, "unit": "µg/mL"}]}]}
